Data set [1] concerns Streptococcus beta-haemolyticus. Briefly: in vitro antibacterial activity (MIC) against hospital strains. Format: cell-based.
A short description of a further data set: solubility in water. Format: physicochemical. To be noted: parts of water needed to dissolve the salt.
The mark [2] stands for this setting: Streptococcus beta-haemolyticus strain A (hospital strain).
Where [3] appears, read: Streptococcus beta-haemolyticus strain D (hospital strain).
[4] abbreviates: Streptococcus beta-haemolyticus strain B (hospital strain).
[5] abbreviates: Streptococcus beta-haemolyticus strain C (hospital strain).

In brackets after ≈: the same amount, converted by molar mass. Where two headings read alike, the source gives them in different places.

In the case of `CC[C@H]1OC(=O)[C@H](C)[C@@H](O[C@H]2C[C@@](C)(OC)[C@@H](O)[C@H](C)O2)[C@H](C)[C@@H](O[C@@H]2O[C@H](C)C[C@H](N(C)C)[C@H]2O)[C@](C)(O)C[C@@H](C)C(=O)[C@H](C)[C@@H](O)[C@]1(C)O` [Erythromycin base, erythromycin A, reference compound], the MIC in data set [1] (setting [2]) worked out at 5 µg⁻¹ mL⁻¹; in data set [1] (setting [3]) it was 0.6 µg⁻¹ mL⁻¹; in data set [1] (Streptococcus, Streptococcus beta-haemolyticus strain C (hospital strain)), 0.6 µg/mL (≈ 0.818 µM).

With `CCC(=O)O[C@H]1[C@H](O[C@@H]2[C@@H](C)[C@H](O[C@H]3C[C@@](C)(OC)[C@@H](O)[C@H](C)O3)[C@@H](C)C(=O)O[C@H](CC)[C@@](C)(O)[C@H](O)[C@@H](C)C(=O)[C@H](C)C[C@@]2(C)O)O[C@H](C)C[C@@H]1N(C)C` [Propionylerythromycin (+)-alpha-mercapto-propionyl-glycinate] [Propionylerythromycin (+)-alpha-mercaptopropionyl-glycinate], the MIC in data set [1] (setting [2]) was 5 µg⁻¹ mL⁻¹; in data set [1] (setting [4]), 0.3 µg⁻¹ mL⁻¹; in data set [1] (setting [5]) it was 0.3 µg⁻¹ mL⁻¹; in data set [1] (setting [3]), 0.3 µg⁻¹ mL⁻¹. In addition, the “soluble in p. water” value in the data set “solubility in water” turned out to be 90 p. Further, the “soluble in p. ethanol 95% v/v” value in the data set “solubility in ethanol” was 2 p.

On to `CCC(=O)O[C@H]1[C@H](O[C@@H]2[C@@H](C)[C@H](O[C@H]3C[C@@](C)(OC)[C@@H](O)[C@H](C)O3)[C@@H](C)C(=O)O[C@H](CC)[C@@](C)(O)[C@H](O)[C@@H](C)C(=O)[C@H](C)C[C@@]2(C)O)O[C@H](C)C[C@@H]1N(C)C` [Propionylerythromycin base, propionic ester (2'-.propanoate) of erythromycin A, reference compound], for which the MIC in data set [1] (Streptococcus, Streptococcus beta-haemolyticus strain A (hospital strain), read-out: MIC) came out at 2.5 µg/mL (≈ 3.16 µM); in data set [1] (Streptococcus, Streptococcus beta-haemolyticus strain B (hospital strain), read-out: MIC) it was 0.6 µg/mL (≈ 0.759 µM); in data set [1] (Streptococcus, Streptococcus beta-haemolyticus strain C (hospital strain), read-out: MIC) it was 0.6 µg/mL (≈ 0.759 µM); in data set [1] (Streptococcus, Streptococcus beta-haemolyticus strain D (hospital strain), read-out: MIC), 0.6 µg/mL (≈ 0.759 µM).

As for `CC[C@H]1OC(=O)[C@H](C)[C@@H](O[C@H]2C[C@@](C)(OC)[C@@H](O)[C@H](C)O2)[C@H](C)[C@@H](O[C@@H]2O[C@H](C)C[C@H](N(C)C)[C@H]2O)[C@](C)(O)C[C@@H](C)C(=O)[C@H](C)[C@@H](O)[C@]1(C)O` [Erythromycin acetylsalicylate], the MIC in data set [1] (setting [4]) worked out at 0.6 µg⁻¹ mL⁻¹; in data set [1] (setting [5]) it was 0.3 µg⁻¹ mL⁻¹; in data set [1] (setting [3]) it was 0.075 µg⁻¹ mL⁻¹. In addition, in the data set “solubility in water”, the “soluble in p. water” value was 100 p.

With `CCC(=O)O[C@H]1[C@H](O[C@@H]2[C@@H](C)[C@H](O[C@H]3C[C@@](C)(OC)[C@@H](O)[C@H](C)O3)[C@@H](C)C(=O)O[C@H](CC)[C@@](C)(O)[C@H](O)[C@@H](C)C(=O)[C@H](C)C[C@@]2(C)O)O[C@H](C)C[C@@H]1N(C)C` [Propionylerythromycin acetylsalicylate], the MIC in data set [1] (setting [2]) was 5 µg⁻¹ mL⁻¹; in data set [1] (setting [4]) it was 0.3 µg⁻¹ mL⁻¹; in data set [1] (setting [5]), 0.3 µg⁻¹ mL⁻¹; in data set [1] (setting [3]), 0.3 µg⁻¹ mL⁻¹. Besides, the “soluble in p. water” value in “solubility in water” was 300 p. In addition, the “soluble in p. ethanol 95% v/v” value in the data set “solubility in ethanol” is 4 p.

`CCC(=O)O[C@H]1[C@H](O[C@@H]2[C@@H](C)[C@H](O[C@H]3C[C@@](C)(OC)[C@@H](O)[C@H](C)O3)[C@@H](C)C(=O)O[C@H](CC)[C@@](C)(O)[C@H](O)[C@@H](C)C(=O)[C@H](C)C[C@@]2(C)O)O[C@H](C)C[C@@H]1N(C)C` [propionylerythromycin (-)-alpha-propionyl-glycinate]: the “soluble in p. water” value in the data set “solubility in water” was 60 p. The “soluble in p. ethanol 95% v/v” value in “solubility in ethanol” turned out to be 2 p.

Source of the values: patent EP0096013A1, “Salts of erythromycin showing a combined therapeutic activity, process for their preparation and pharmaceutical formulations containing them” (NUOVO CONSORZIO SANITARIO NAZIONALE, priority 1982, dated 1983).
